Experimental data taken from the supplement of paper PMC10307832.

Experiments:
Assay in all cases: relative viability (nuclei count vs DMSO), 5 days (fraction); higher = more cells survive
[1] = compound: COC1=C(C=C(C=C1)C2=CC3=NC=CN3C(=N2)NC4=C(C=CC=N4)C(=O)N)OC [BAY61-3606] + O=C(c1cc(Cc2n[nH]c(=O)c3ccccc23)ccc1F)N1CCN(C(=O)C2CC2)CC1 [Olaparib] (partner 8 µM)
Method in brief: (§1)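 Lung cancer cell lines were pin-tool dosed in 1536-well plates on the day after seeding, with either a lone drug or a fixed anchor-drug dose plus five library-drug doses (not always all listed) in √10 steps. Nuclei were counted on 4× images after 5 days. Relative viability is the ratio of treated-well to vehicle-well nuclei counts, with each value a median of duplicate plates.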

[2] = compound: COc1cccc2c1C(=O)c1c(O)c3c(c(O)c1C2=O)C[C@@](O)(C(=O)CO)C[C@@H]3O[C@H]1C[C@H](N)[C@H](O)[C@H](C)O1 [Doxorubicin] + C[C@]1(O)C[C@@H](c2nc(-c3ccc4ccc(-c5ccccc5)nc4c3)c3c(N)nccn32)C1 [Linsitinib] (partner 1 µM)
Method in brief: as §1

[3] = compound: COc1cccc2c1C(=O)c1c(O)c3c(c(O)c1C2=O)C[C@@](O)(C(=O)CO)C[C@@H]3O[C@H]1C[C@H](N)[C@H](O)[C@H](C)O1 [Doxorubicin] + CC(C)C[C@H](NC(=O)[C@H](Cc1ccccc1)NC(=O)c1cnccn1)B(O)O [Bortezomib] (partner 0.002 µM)
Method in brief: as §1

[4] = compound: COC1=C(C=C(C=C1)C2=CC3=NC=CN3C(=N2)NC4=C(C=CC=N4)C(=O)N)OC [BAY61-3606] + Cc1nc(NC(=O)N2CCC[C@H]2C(N)=O)sc1-c1ccnc(C(C)(C)C(F)(F)F)c1 [Alpelisib] (partner 2 µM)
Method in brief: as §1

Cell Line: LXF-289
- relative viability ([1]; first compound 0.02 µM): 1.05
- relative viability ([1]; first compound 0.06325 µM): 1.1
- relative viability ([1]; first compound 0.2 µM): 0.96
- relative viability ([1]; first compound 0.6325 µM): 1.04
- relative viability ([1]; first compound 2 µM): 0.963
- relative viability ([2]; first compound 0.001 µM): 0.997
- relative viability ([2]; first compound 0.003162 µM): 0.968
- relative viability ([2]; first compound 0.01 µM): 0.946
- relative viability ([2]; first compound 0.03162 µM): 1.04
- relative viability ([2]; first compound 0.1 µM): 0.993
- relative viability ([3]; first compound 0.001 µM): 1.01
- relative viability ([3]; first compound 0.003162 µM): 1.02
- relative viability ([3]; first compound 0.01 µM): 0.998
- relative viability ([3]; first compound 0.03162 µM): 0.996
- relative viability ([3]; first compound 0.1 µM): 0.926
- relative viability ([4]; first compound 0.02 µM): 0.991
- relative viability ([4]; first compound 0.06325 µM): 1.09
- relative viability ([4]; first compound 0.2 µM): 1.03
- relative viability ([4]; first compound 0.6325 µM): 1.14
- relative viability ([4]; first compound 2 µM): 1.05

Cell Line: NCI-H1437
- relative viability ([1]; first compound 0.02 µM): 0.634
- relative viability ([1]; first compound 0.06325 µM): 0.687
- relative viability ([1]; first compound 0.2 µM): 0.607
- relative viability ([1]; first compound 0.6325 µM): 0.621
- relative viability ([1]; first compound 2 µM): 0.555
- relative viability ([2]; first compound 0.001 µM): 1
- relative viability ([2]; first compound 0.003162 µM): 1.13
- relative viability ([2]; first compound 0.01 µM): 0.965
- relative viability ([2]; first compound 0.03162 µM): 0.591
- relative viability ([2]; first compound 0.1 µM): 0.28
- relative viability ([3]; first compound 0.001 µM): 0.491
- relative viability ([3]; first compound 0.003162 µM): 0.605
- relative viability ([3]; first compound 0.01 µM): 0.472
- relative viability ([3]; first compound 0.03162 µM): 0.205
- relative viability ([3]; first compound 0.1 µM): 0.185
- relative viability ([4]; first compound 0.02 µM): 0.987
- relative viability ([4]; first compound 0.06325 µM): 0.988
- relative viability ([4]; first compound 0.2 µM): 0.935
- relative viability ([4]; first compound 0.6325 µM): 1.06
- relative viability ([4]; first compound 2 µM): 0.903

Cell Line: HCC-827
- relative viability ([1]; first compound 0.02 µM): 0.648
- relative viability ([1]; first compound 0.06325 µM): 0.737
- relative viability ([1]; first compound 0.2 µM): 0.67
- relative viability ([1]; first compound 0.6325 µM): 0.606
- relative viability ([1]; first compound 2 µM): 0.624
- relative viability ([2]; first compound 0.001 µM): 0.922
- relative viability ([2]; first compound 0.003162 µM): 0.965
- relative viability ([2]; first compound 0.01 µM): 0.969
- relative viability ([2]; first compound 0.03162 µM): 0.921
- relative viability ([2]; first compound 0.1 µM): 0.921
- relative viability ([3]; first compound 0.001 µM): 1.05
- relative viability ([3]; first compound 0.003162 µM): 1.03
- relative viability ([3]; first compound 0.01 µM): 1.07
- relative viability ([3]; first compound 0.03162 µM): 1.01
- relative viability ([3]; first compound 0.1 µM): 0.956
- relative viability ([4]; first compound 0.02 µM): 0.94
- relative viability ([4]; first compound 0.06325 µM): 1.01
- relative viability ([4]; first compound 0.2 µM): 0.995
- relative viability ([4]; first compound 0.6325 µM): 0.954
- relative viability ([4]; first compound 2 µM): 0.916

Cell Line: NCI-H1650
- relative viability ([1]; first compound 0.02 µM): 0.86
- relative viability ([1]; first compound 0.06325 µM): 0.924
- relative viability ([1]; first compound 0.2 µM): 0.768
- relative viability ([1]; first compound 0.6325 µM): 0.806
- relative viability ([1]; first compound 2 µM): 0.674
- relative viability ([3]; first compound 0.001 µM): 0.215
- relative viability ([3]; first compound 0.003162 µM): 0.185
- relative viability ([3]; first compound 0.01 µM): 0.187
- relative viability ([3]; first compound 0.03162 µM): 0.185
- relative viability ([3]; first compound 0.1 µM): 0.168

Cell Line: HCC-15
- relative viability ([1]; first compound 0.02 µM): 0.668
- relative viability ([1]; first compound 0.06325 µM): 0.685
- relative viability ([1]; first compound 0.2 µM): 0.729
- relative viability ([1]; first compound 0.6325 µM): 0.719
- relative viability ([1]; first compound 2 µM): 0.655
- relative viability ([2]; first compound 0.001 µM): 0.878
- relative viability ([2]; first compound 0.003162 µM): 0.842
- relative viability ([2]; first compound 0.01 µM): 0.927
- relative viability ([2]; first compound 0.03162 µM): 0.795
- relative viability ([2]; first compound 0.1 µM): 0.725
- relative viability ([3]; first compound 0.001 µM): 0.953
- relative viability ([3]; first compound 0.003162 µM): 1.02
- relative viability ([3]; first compound 0.01 µM): 0.923
- relative viability ([3]; first compound 0.03162 µM): 0.623
- relative viability ([3]; first compound 0.1 µM): 0.636
- relative viability ([4]; first compound 0.02 µM): 0.836
- relative viability ([4]; first compound 0.06325 µM): 0.94
- relative viability ([4]; first compound 0.2 µM): 0.929
- relative viability ([4]; first compound 0.6325 µM): 0.862
- relative viability ([4]; first compound 2 µM): 0.768

Cell Line: EKVX
- relative viability ([1]; first compound 0.02 µM): 0.99
- relative viability ([1]; first compound 0.06325 µM): 0.999
- relative viability ([1]; first compound 0.2 µM): 0.798
- relative viability ([1]; first compound 0.6325 µM): 0.91
- relative viability ([1]; first compound 2 µM): 0.782
- relative viability ([2]; first compound 0.001 µM): 0.996
- relative viability ([2]; first compound 0.003162 µM): 0.922
- relative viability ([2]; first compound 0.01 µM): 0.957
- relative viability ([2]; first compound 0.03162 µM): 1.11
- relative viability ([2]; first compound 0.1 µM): 0.879
- relative viability ([3]; first compound 0.001 µM): 0.956
- relative viability ([3]; first compound 0.003162 µM): 1.04
- relative viability ([3]; first compound 0.01 µM): 1.06
- relative viability ([3]; first compound 0.03162 µM): 0.994
- relative viability ([3]; first compound 0.1 µM): 0.591
- relative viability ([4]; first compound 0.02 µM): 0.916
- relative viability ([4]; first compound 0.06325 µM): 0.886
- relative viability ([4]; first compound 0.2 µM): 0.89
- relative viability ([4]; first compound 0.6325 µM): 0.981
- relative viability ([4]; first compound 2 µM): 0.744

Cell Line: NCI-H2126
- relative viability ([1]; first compound 0.02 µM): 0.92
- relative viability ([1]; first compound 0.06325 µM): 0.985
- relative viability ([1]; first compound 0.2 µM): 0.865
- relative viability ([1]; first compound 0.6325 µM): 0.909
- relative viability ([1]; first compound 2 µM): 0.833
- relative viability ([2]; first compound 0.001 µM): 0.704
- relative viability ([2]; first compound 0.003162 µM): 0.748
- relative viability ([2]; first compound 0.01 µM): 0.739
- relative viability ([2]; first compound 0.03162 µM): 0.712
- relative viability ([2]; first compound 0.1 µM): 0.718
- relative viability ([3]; first compound 0.001 µM): 1.08
- relative viability ([3]; first compound 0.003162 µM): 1.12
- relative viability ([3]; first compound 0.01 µM): 1.1
- relative viability ([3]; first compound 0.03162 µM): 1.1
- relative viability ([3]; first compound 0.1 µM): 1.13
- relative viability ([4]; first compound 0.02 µM): 0.784
- relative viability ([4]; first compound 0.06325 µM): 0.769
- relative viability ([4]; first compound 0.2 µM): 0.705
- relative viability ([4]; first compound 0.6325 µM): 0.739
- relative viability ([4]; first compound 2 µM): 0.671

Cell Line: LK-2
- relative viability ([1]; first compound 0.02 µM): 0.694
- relative viability ([1]; first compound 0.06325 µM): 0.598
- relative viability ([1]; first compound 0.2 µM): 0.731
- relative viability ([1]; first compound 0.6325 µM): 0.846
- relative viability ([1]; first compound 2 µM): 0.736
- relative viability ([2]; first compound 0.001 µM): 0.524
- relative viability ([2]; first compound 0.003162 µM): 0.742
- relative viability ([2]; first compound 0.01 µM): 0.409
- relative viability ([2]; first compound 0.03162 µM): 0.483
- relative viability ([2]; first compound 0.1 µM): 0.627
- relative viability ([4]; first compound 0.02 µM): 1.11
- relative viability ([4]; first compound 0.06325 µM): 0.874
- relative viability ([4]; first compound 0.2 µM): 1.17
- relative viability ([4]; first compound 0.6325 µM): 1.15
- relative viability ([4]; first compound 2 µM): 0.996

Cell Line: NCI-H1563
- relative viability ([2]; first compound 0.001 µM): 1.07
- relative viability ([2]; first compound 0.003162 µM): 0.935
- relative viability ([2]; first compound 0.01 µM): 0.898
- relative viability ([2]; first compound 0.03162 µM): 0.634
- relative viability ([2]; first compound 0.1 µM): 0.587
- relative viability ([3]; first compound 0.001 µM): 0.716
- relative viability ([3]; first compound 0.003162 µM): 0.772
- relative viability ([3]; first compound 0.01 µM): 0.594
- relative viability ([3]; first compound 0.03162 µM): 0.515
- relative viability ([3]; first compound 0.1 µM): 0.421
- relative viability ([4]; first compound 0.02 µM): 1.02
- relative viability ([4]; first compound 0.06325 µM): 0.905
- relative viability ([4]; first compound 0.2 µM): 0.894
- relative viability ([4]; first compound 0.6325 µM): 0.894
- relative viability ([4]; first compound 2 µM): 0.683
